Measured values as given in patent US10752612B2, “PLK4 inhibitors” (LUDWIG INSTITUTE FOR CANCER RESEARCH LTD, priority 2015, dated 2020).

What was measured:
human Aurora A = target: T1, human Aurora A (Homo sapiens, UniProt O14965); experiment: Aurora A kinase assay (ADP-Glo); assay type: biochemical
T1 construct: purchased Millipore
T1 sequence (O14965 1-403): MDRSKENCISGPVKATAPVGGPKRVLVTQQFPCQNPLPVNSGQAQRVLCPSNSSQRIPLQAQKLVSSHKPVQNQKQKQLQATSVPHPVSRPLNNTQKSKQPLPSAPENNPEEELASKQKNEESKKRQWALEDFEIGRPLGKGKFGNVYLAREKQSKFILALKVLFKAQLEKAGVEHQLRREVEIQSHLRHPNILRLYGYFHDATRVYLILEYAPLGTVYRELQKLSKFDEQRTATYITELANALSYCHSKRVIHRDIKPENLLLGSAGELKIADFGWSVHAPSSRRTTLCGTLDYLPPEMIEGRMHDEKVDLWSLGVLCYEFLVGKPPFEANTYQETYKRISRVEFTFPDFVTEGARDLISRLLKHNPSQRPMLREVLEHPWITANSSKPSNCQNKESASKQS
Method: LRRASLG)+inhibitors arrayed in dose response (added as described above). […] Detection, measurement and data analysis were performed as described above.

TNK1 = target: T2, TNK1 (Homo sapiens, UniProt Q13470); experiment: Radiometric kinase assay, off-target TNK1; assay type: biochemical; settings: off-target from DiscoveRx kinome profiling
T2 construct: Reaction Biology (Malvern, Pa.), contract assay
T2 sequence (Q13470 1-666): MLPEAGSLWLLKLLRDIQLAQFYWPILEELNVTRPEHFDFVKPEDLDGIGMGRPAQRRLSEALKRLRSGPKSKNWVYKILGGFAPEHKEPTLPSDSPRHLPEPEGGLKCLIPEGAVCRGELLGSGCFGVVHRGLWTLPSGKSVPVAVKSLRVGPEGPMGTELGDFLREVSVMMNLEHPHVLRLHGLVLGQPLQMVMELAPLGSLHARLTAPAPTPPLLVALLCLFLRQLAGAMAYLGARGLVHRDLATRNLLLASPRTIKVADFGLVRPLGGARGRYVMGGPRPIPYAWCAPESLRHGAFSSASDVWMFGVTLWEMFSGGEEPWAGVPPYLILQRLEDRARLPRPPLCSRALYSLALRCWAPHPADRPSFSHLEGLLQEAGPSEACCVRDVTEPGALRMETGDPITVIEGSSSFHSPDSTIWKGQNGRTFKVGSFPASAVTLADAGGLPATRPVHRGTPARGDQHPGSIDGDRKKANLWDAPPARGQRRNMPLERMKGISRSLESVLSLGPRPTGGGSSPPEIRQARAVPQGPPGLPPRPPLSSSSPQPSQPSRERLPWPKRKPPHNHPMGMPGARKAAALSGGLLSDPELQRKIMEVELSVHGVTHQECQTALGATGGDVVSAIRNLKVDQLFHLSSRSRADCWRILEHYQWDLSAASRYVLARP
Method: (§1) Aurora B and other radiometric kinase assays were performed by Reaction Biology (Malvern, Pa.). Kinome profiling of centrinone and centrinone-B was performed by DiscoveRx (San Diego, Calif.).

SRPK1 = target: T3, SRPK1 (Homo sapiens, UniProt Q96SB4); experiment: Radiometric kinase assay, off-target SRPK1; assay type: biochemical; settings: off-target from DiscoveRx kinome profiling
T3 construct: Reaction Biology (Malvern, Pa.), contract assay
Method: as §1

HeLa cells = experiment: Quantification of centrosome numbers from fixed samples, HeLa; assay type: cell-based, human; settings: for foci of centriolar and pericentriolar material markers: centrinone treatment
Method: Quantification of centrosome numbers from fixed samples. Cells were seeded onto poly-D-lysine-coated coverslips (Neuvitro) in 12-well plates at least 8 hours before fixation. At the required timepoints for each experiment, cells were washed once with PBS and fixed in 100% methanol (−20° C., 5 minutes). Fixed cells were washed with PBS, blocked with PBS+4% BSA+0.1% Triton X-100, and stained with primary antibodies against γ-tubulin and Cep192, which localize to the pericentriolar material and proximal to the outer centriole wall, respectively (47, 48). Alexa488-labeled anti-mouse secondary antibody (against anti-γ-tubulin) and Alexa647-labeled anti-rabbit secondary antibody (against anti-Cep192) were both used at 1.5 jag/mL. Samples were mounted onto slides with Prolong Gold antifade reagent (Life Technologies). Images of fixed interphase cells were acquired on a Nikon Eclipse E800 with a 60×1.4 NA PlanApo objective and ORCA-ER camera (Hamamatsu) using Metamorph software (Molecular Devices). Quantification of foci was performed manually. A focus was defined as a bona-fide centrosome if it was positive for both γ-tubulin and Cep192 (true for >95% of foci).

panel of 19 cell lines = experiment: Proliferation after centrosome depletion, panel of cell lines; assay type: cell-based; settings: panel of 19 cell lines (Table 6)
Method: Proliferation assays. For each condition, cells were seeded in triplicate into 6-well plates at 50,000 cells/well. Compounds were added at the indicated concentrations. At 24-hour intervals, 3 wells were harvested per condition. Cell counting was performed using a TC10 automated cell counter (Bio-Rad). Results are from 3 independent experiments.

RPE1 Plk4 G95L cells = experiment: Centrosome number and passaging assay, RPE1 Plk4 G95L knock-in; assay type: cell-based, human; settings: RPE1, both PLK4 alleles G95L
Source text: For generation of RPE1 cells with a Plk4(G95L) knock-in, we targeted the intronic region between exons 4 and 5 of the Plk4 locus with a gRNA sequence ([…], SEQ ID NO: 1) cloned into pX458 (a gift from Feng Zhang; Addgene plasmid #48138; 44). A repair template was cloned to introduce the G95L point mutation, as well as a neomycin resistance cassette within the intronic region (see FIG. 15). RPE1 cells were transfected with the Cas9/gRNA plasmid, then transduced with adeno-associated virus coding for the repair template using previously described methods (45). Cells were selected in 96-well plates for 2 weeks using 0.5 mg/ml Geneticin (Life Technologies). Positive clones homozygous for the G95L knock-in were identified by PCR and sequencing of genomic DNA.
Passaging assays. Cells were seeded into 10 cm tissue culture plates at 150,000 (HeLa, NIH/3T3 and RPE1) or 200,000 cells/plate (primary fibroblasts). Compounds were added at the indicated concentrations. At 4-day intervals, cells were harvested, counted using a TC10 cell counter, and re-seeded into new plates at the densities above. Results are from 2 independent experiments.

T3 sequence (Q96SB4 whole entry): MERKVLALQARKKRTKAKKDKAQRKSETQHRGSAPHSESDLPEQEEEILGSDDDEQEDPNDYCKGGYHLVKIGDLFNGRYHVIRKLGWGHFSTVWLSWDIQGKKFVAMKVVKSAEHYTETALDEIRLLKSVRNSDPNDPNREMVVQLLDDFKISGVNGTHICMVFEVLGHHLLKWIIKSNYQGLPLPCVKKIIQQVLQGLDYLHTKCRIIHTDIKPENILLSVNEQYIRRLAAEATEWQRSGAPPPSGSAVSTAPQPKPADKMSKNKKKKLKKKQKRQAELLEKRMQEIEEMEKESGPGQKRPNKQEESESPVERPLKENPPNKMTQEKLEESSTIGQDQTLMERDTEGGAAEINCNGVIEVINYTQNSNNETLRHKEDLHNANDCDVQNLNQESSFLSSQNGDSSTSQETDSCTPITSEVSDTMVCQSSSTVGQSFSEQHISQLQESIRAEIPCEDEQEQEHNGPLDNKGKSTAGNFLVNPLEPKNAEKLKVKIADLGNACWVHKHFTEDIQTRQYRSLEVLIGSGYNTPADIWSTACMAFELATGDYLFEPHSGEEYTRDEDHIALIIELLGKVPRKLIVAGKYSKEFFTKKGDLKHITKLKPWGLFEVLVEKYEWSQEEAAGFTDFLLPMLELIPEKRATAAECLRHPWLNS

## COc1c(Nc2cc(C)[nH]n2)nc(Sc2ccc(S(=O)(=O)Cc3cccc([N+](=O)[O-])c3F)cc2F)nc1N1CCOCC1 [Centrinone, 2-((2-fluoro-4-((2-fluoro-3-nitrobenzyl)sulfonyl)phenyl)thio)-5-methoxy-N-(5-methyl-1H-pyrazol-3-yl)-6-morpholinopyrimidin-4-amine]
Human Aurora A
  Ki: 171 nM
TNK1
  Ki: 1.38 nM
SRPK1
  Ki: > 150 nM
HeLa cells; HeLa (also BT549, N1E-115-1)
  centrosome number directly after washout from long-term treated cells: initial wave of centrosome overduplication
HeLa cells; HeLa, 10 days following washout
  centrosome numbers after washout: all cells exhibited normal centrosome numbers
HeLa cells; HeLa
  foci of centriolar and pericentriolar material markers: loss of all markers from cells
HeLa cells; HeLa, listed as centrinone
  foci of centriolar and pericentriolar material markers: most cells lacked centrioles/centrosomes
Panel of 19 cell lines
  proliferation after treatment: continued to proliferate
RPE1 Plk4 G95L cells
  centrosome loss and proliferation: did not lead to centrosome loss or proliferation arrest
